Like-named read-outs stand apart in the source and are kept apart here. Where a SMILES comes first, the peptide text is derived from it. Bridges are numbered along the chain shown (N, C = ends). [ ]: non-standard residue; d: D form. 2Nal = N[C@@H](Cc1ccc2ccccc2c1)C(=O)O; AEF = NCCOc1ccc(C[C@H](N)C(=O)O)cc1; Pen = CC(C)(S)[C@H](N)C(=O)O; Thp = NC1(C(=O)O)CCOCC1
Legend:
[1] = Stability in simulated intestinal fluid (SIF); assay type: in vitro ADME; set-up: dose or concentration left out as unconfirmed; details: simulated intestinal fluid (SIF) with pancreatin, pH 6.8; read-out: Stability (t1/2, hr) SIF (converted)
[2] = Stability in simulated gastric fluid (SGF); assay type: in vitro ADME; details: pig, simulated gastric fluid (SGF) with porcine pepsin, pH 2
[3] = system: TNBS-induced acute colitis, Sprague-Dawley rats; assay: TNBS induced colitis in rat; assay type: in vivo
[4] = system: distal colon tissue of TNBS-exposed rats; assay: Biomarkers in distal colon of TNBS rats (ELISA); assay type: in vivo, rat; details: vs vehicle treated controls
Protocol: Levels of inflammatory markers were examined in the colons. The distal colon tissue samples, designated for protein expression analysis, were flash frozen after collection. For protein extraction, the samples were thawed, weighed and homogenized in the extraction buffer (PBS pH 7.2 supplemented with Protease Inhibitors, 3× volume:weight). The homogenates were centrifuged at 13 krpm at 4° C. for 15 minutes, a total of two times to remove the debris. The supernatants were saved in multiple aliquots in −80° C. and subsequently used for protein expression analysis on ELISA. The total protein in each sample was quantified using BCA assay.

[5] = DTT stability assay (redox stability); assay type: in vitro ADME; details: half-life, 0.5 mM DTT, room temperature, numeric
[6] = biological target: human IL-23R (IL23R_huFC) (Homo sapiens, UniProt Q5VWK5); details: read-out: ELISA IL23R/IL23 in nMoles (IC50); non-cyclic peptides
Cyno IL-23R = assay type: binding
rat splenocytes = assay: Rat Splenocyte Assay (IL-17A); assay type: cell-based; details: IL-17A produced by activated splenocytes exposed to IL-23; read-out: Cell assay (nM) Rat (Spleen), IC50
Protocol: A new assay developed was the rat splenocyte assay.
Briefly, splenocytes freshly isolated from rat were seeded in 96-well tissue culture plates in complete medium containing IL-10. […] Changes in IL-17A levels in the supernatants were detected using an ELISA.

[7] = system: DSS-induced colitis, Sprague Dawley rats; assay: Rat Colitis Model: 9 Days of 3% DSS-Containing Drinking Water; assay type: in vivo; details: 100 mg/kg PO, QD
IL-23R in human DB cells = assay: Schild analysis, Human DB Cell (pSTAT3); assay type: cell-based; details: 0.3-100 nM peptide
[8] = read-out: Cross Reactivity (nM) ELISA cyno IL23R IL23

Chain of human IL-23R (IL23R_huFC) (Q5VWK5 24-354 limits assumed, looked up): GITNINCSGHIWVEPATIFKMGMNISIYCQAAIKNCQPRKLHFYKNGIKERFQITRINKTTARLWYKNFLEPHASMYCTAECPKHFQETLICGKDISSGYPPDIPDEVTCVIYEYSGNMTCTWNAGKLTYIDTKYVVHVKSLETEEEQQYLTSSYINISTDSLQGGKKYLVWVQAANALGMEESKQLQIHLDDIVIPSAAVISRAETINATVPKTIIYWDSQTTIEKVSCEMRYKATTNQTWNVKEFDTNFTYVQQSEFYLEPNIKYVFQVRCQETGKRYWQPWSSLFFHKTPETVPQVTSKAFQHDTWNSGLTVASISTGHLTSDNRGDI

In the case of `CC(=O)N[C@@H]1CCSC[C@@H](C(=O)N[C@@H](Cc2ccc(OCCN)cc2)C(=O)N[C@@H](Cc2ccc3ccccc3c2)C(=O)NC2(C(=O)N[C@@H](CCC(=O)O)C(=O)N[C@@H](CC(N)=O)C(=O)N[C@@H](CC(N)=O)C(N)=O)CCOCC2)NC(=O)[C@H](CCC(N)=O)NC(=O)[C@H](Cc2c[nH]c3ccccc23)NC(=O)[C@H]([C@@H](C)O)NC(=O)[C@@H](CCC(N)=O)NC1=O` [SEQ ID NO: 980], the half-life [1] is reported as 11 h, the half-life at 20 μM [2] is reported as 10 h and the colon macroscopic score ([3]; Example 14, vs vehicle) is reported as “significantly reduced”. The “sum of the histopathology score” value ([3]; Example 14, vs vehicle) was “significantly reduced”, the weight loss ([3]; Example 14, 37 mg/kg/day oral) was “prevented” and the “IL-22 level in colon” value [4] was “reduced”. For the same molecule, the “MPO level in colon” value [4] was “reduced”.
In the case of `CC(=O)NC1CCSCC(C(=O)NC(Cc2ccc(OCCN)cc2)C(=O)NC(Cc2ccc3ccccc3c2)C(=O)NC2(C(=O)NC(CCC(=O)O)C(=O)NC(CC(N)=O)C(=O)NC(CC(N)=O)C(N)=O)CCOCC2)NC(=O)C(CCC(N)=O)NC(=O)C(Cc2c[nH]c3ccccc23)NC(=O)C(C(C)O)NC(=O)C(CCC(N)=O)NC1=O` (stereo not shown) [SEQ ID NO: 1290, Ac-cyclo[[Abu]-QTWQC]-[Phe[4-(2-aminoethoxy)]-[2-Nal]-[4-amino-4-carboxy-tetrahydropyran]-ENN-NH2], the “DTT Stability” value [5] is reported as greater than 120 min and the IC50 [6] is reported as greater than 100 µM.
For “Ac-[Pen]-NTWQ-[Pen]-[Phe[4-(2-aminoethoxy)]-[2-Nal]-[4-amino-4-carboxy-tetrahydropyran]-[Lys(Ac)]—NN—NH2 [SEQ ID NO: 1185]”, the IC50 (Cyno IL-23R; IL-23/IL-23R competitive binding, cyno, read-out: ELISA (nM) Cyno, IC50) was 3 nM, the IC50 (rat splenocytes) was 35 nM and the histopathology scores ([3]; Example 12) was “did not significantly reduce”. The colon macroscopic score ([3]; Example 12, vs vehicle) was “significantly reduced”, the weight loss ([3]; Example 12, Peptide 1185 37 mg/kg/day PO, anti-IL-23p19 4 mg/kg ip, prednisolone 10 mg/day P.O., vs vehicle) was “did not significantly prevent” and the “IL-17A level in colon” value [4] was “did not significantly reduce”. For the same molecule, the “IL-22 level in colon” value [4] was “did not significantly reduce” and the “MPO level in colon” value [4] was “did not significantly reduce”.
For `O=C(O)c1cc(/N=N/c2ccc(S(=O)(=O)Nc3ccccn3)cc2)ccc1O` [sulfasalazine], the “terminal ratio of colon weight:colon length” value ([7]; difference vs DSS alone) was “significant” and the “disease score (DAI)” value ([7]; from Day 5, vs DSS alone) was “attenuated”.
With “H-CSNWVCYWHTYG-NH2 (cysteine pairing not given here) [SEQ ID NO: 198]” the IC50 (Cyno IL-23R; [8]) was less than 250 nM.
With `CC(=O)NCCCC[C@H](NC(=O)C1(NC(=O)[C@H](Cc2ccc3ccccc3c2)NC(=O)[C@H](Cc2ccc(OCCN)cc2)NC(=O)[C@H]2NC(=O)[C@H](CCC(N)=O)NC(=O)[C@H](Cc3c[nH]c4ccccc34)NC(=O)[C@H]([C@@H](C)O)NC(=O)[C@H](CC(N)=O)NC(=O)[C@@H](NC(C)=O)C(C)(C)SSC2(C)C)CCOCC1)C(=O)N[C@@H](CC(N)=O)C(=O)N[C@@H](CC(N)=O)C(=O)N[C@@H](CC(N)=O)C(N)=O` [SEQ ID NO: 1211, Ac-[Pen]-NTWQ-[Pen]-[Phe[4-(2-aminoethoxy)]-[2-Nal]-[4-amino-4-carboxy-tetrahydropyran]-[Lys(Ac)]-NNN-NH2] (Ac-[Pen]NTWQ[Pen][AEF][2Nal][Thp]K(Ac)NNN-NH2; disulfide 1-6) the Schild slope (IL-23R in human DB cells) was 0.76.
Molecule Hy-CADWVCYWHTFG-NH2 [SEQ ID NO: 169] has an IC50 (Cyno IL-23R; [8]) of 1000 to 10000 nM.

Reference: patent US10787490B2, “Peptide inhibitors of interleukin-23 receptor and their use to treat inflammatory diseases” (Protagonist Therapeutics, Inc., priority 2015, dated 2020)
